This assay deals with T1, human TRPC6 (Homo sapiens, UniProt Q9Y210).
T1 construct: expressed in transfected cells
T1 sequence (Q9Y210 1-931): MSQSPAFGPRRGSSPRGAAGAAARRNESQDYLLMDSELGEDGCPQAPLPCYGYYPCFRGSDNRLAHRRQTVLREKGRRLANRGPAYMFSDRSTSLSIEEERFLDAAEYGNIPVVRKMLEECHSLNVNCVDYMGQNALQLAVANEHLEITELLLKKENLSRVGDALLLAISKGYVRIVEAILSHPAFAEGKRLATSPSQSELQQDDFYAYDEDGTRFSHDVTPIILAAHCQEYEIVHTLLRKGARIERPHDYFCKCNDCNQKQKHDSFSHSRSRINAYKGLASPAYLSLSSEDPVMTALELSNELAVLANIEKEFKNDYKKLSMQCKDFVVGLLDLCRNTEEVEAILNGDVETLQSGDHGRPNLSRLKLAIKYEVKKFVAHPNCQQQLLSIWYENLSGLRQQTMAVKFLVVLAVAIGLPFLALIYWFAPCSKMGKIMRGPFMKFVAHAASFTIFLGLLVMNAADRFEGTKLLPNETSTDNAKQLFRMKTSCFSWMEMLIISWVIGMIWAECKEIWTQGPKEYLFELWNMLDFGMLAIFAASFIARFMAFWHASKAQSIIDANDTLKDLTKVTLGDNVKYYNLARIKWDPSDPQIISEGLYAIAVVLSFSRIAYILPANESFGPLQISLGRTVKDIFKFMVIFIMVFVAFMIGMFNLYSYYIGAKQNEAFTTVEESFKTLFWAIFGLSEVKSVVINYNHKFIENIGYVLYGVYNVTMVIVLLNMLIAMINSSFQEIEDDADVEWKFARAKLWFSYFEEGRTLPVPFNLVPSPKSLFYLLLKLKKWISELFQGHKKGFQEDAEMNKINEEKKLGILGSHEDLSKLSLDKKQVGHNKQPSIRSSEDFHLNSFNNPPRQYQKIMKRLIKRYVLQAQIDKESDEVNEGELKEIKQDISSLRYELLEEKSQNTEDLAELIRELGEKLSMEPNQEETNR
The experiment in a line: TRPC6 Calcium Flux Assay. The settings on record: inhibition of OAG-triggered calcium influx in HEK293 cells stably transfected with human TRPC6; FLIPR; 25 min compound preincubation; 50 uM OAG; read-out: hTRPC6 Potency. The assay is classed as cell-based. The procedure: Potency of TRPC6 (Transient receptor potential channel family C6) inhibitors were measured by their inhibition of Calcium influx trigged by OAG (1-Oleoyl-2-acetyl-sn-glycerol, Millipore Sigma, O6754) stimulation on HEK293 cells stably transfected with human TRPC6 using a FLIPR tetra system (BD PBX Calcium Assay Kit; BD Biosciences, San Jose Calif.). Cells were grown in a humidified environment at 37° C. under 5% CO2 using the growth medium with the following selective reagents (Dulbecco's Modified Eagle's Medium (DMEM) high glucose, 10% Fetal Bovine Serum, 1×PSGlu (penicillin-streptomycin glutamine), 1×NEAA (Non-essential amino acid), 1×Na Pyruvate and 200 ug/ml Hygromycin). For general passage, cells were grown to 70-90% confluency; the media was removed, and the cells were gently washed 2 times with calcium and magnesium free PBS (phosphate-buffered saline). Trypsin (3 mL) was applied for 5 minutes at 37° C. The cells were dislodged by rapping flask against base of a hand and 7 mL of growth medium was added to deactivate trypsin and re-suspend cells. The usual splitting schedule was 1:5 every 2-3 days.
Cells were plated the day before the assay, plating cell density is 1.0-1.5×10^4/25 μl/well in poly-D-lysine (PDL) coated 384-well plates using either multichannel pipettes or multidrop. These cells were first incubated with fluorescence dye at room temperature for 90-120 minutes after they were grown on PDL-coated 384-well black plates overnight (Dye loading buffer 10 ml example: 9 mL assay buffer, 1 mL, 10×PBX signal enhancer, 10 μL Calcium indicator). The cells were incubated with a dose of compounds for 25 minutes before being stimulated with TRPC6 agonist OAG. The OAG solution was prepared by adding OAG into assay buffer (Ca ringer solution base: 10 mM HEPES (4-(2-hydroxyethyl)-1-piperazine-ethanesulfonic acid), 4 mM MgCl2, 120 mM NaCl, 5 mM KCl, pH=7.2 @25° C.)+0.1% BSA+2 mM CaCl2) to the concentration of 0.2 mM/2% DMSO, which achieves a final on cell concentration of 50 uM/0.5% DMSO. 12.5 uL OAG mixture was added and the activation of the TRPC6 channel was measured by the change of intracellular Calcium levels on FLIPR terra system.
Data was acquired by measuring the fluorescent peak signal subtracted from the background during the 180 second imaging frame. Each data point is further normalized to 100% of OAG triggered signal vs. buffer. Table 3 provides the IC50 for each compound, which data is obtained by plotting peak signal over the compound dose.
Turning to `COc1cnc(Cn2c(N3CC[C@@H](F)[C@H](N)C3)nc3c(F)cc(F)cc32)nc1` (single isomer, unassigned) [Example 9], the IC50 was 0.5 nM.

Turning to `N[C@@H]1CN(c2nc3cc(F)cc(F)c3n2Cc2ccc(F)cn2)CCC1(F)F` (single isomer, unassigned) [Example 2], the IC50 is 2.2 nM.

For the compound `N[C@@H]1CN(c2nc3ccc(F)cc3n2Cc2ccc(Cl)cn2)CC[C@H]1F` (single isomer, unassigned) [Example 12, (3R.4R)-1-(1-((5-chloro-2-pyridinyl)methyl)-6-fluoro-1H-benzimidazol-2-yl)-4-fluoro-3-piperidinamine], the IC50 was 1 nM.

Turning to `N#Cc1cccc(Cn2c(N3CC[C@@H](F)[C@H](N)C3)nc3cc(F)c(F)cc32)n1` [Example 20, 6-((2-((3R,4R)-3-amino-4-fluoro-1-piperidinyl)-5,6-difluoro-1H-benzimidazol-1-yl)methyl)-2-pyridinecarbonitrile], the IC50 amounted to 1.8 nM.

`N[C@@H]1CN(c2nc3cc(F)ccc3n2Cc2ccc(F)cn2)CC[C@H]1F` (single isomer, unassigned) [Example 1]: the IC50 is 0.7 nM.

As to `N[C@@H]1CN(c2nc3cc(F)c(F)cc3n2Cc2ncc(Cl)cn2)CC[C@H]1F` [Example 18, (3R,4R)-1-(1-((5-chloro-2-pyrimidinyl)methyl)-5,6-difluoro-1H-benzimidazol-2-yl)-4-fluoro-3-piperidinamine], the IC50 came out at 1.2 nM.

Take `N[C@@H]1CN(c2nc3c(F)cc(F)cc3n2Cc2ncc(Cl)cn2)CCC1(F)F` (single isomer, unassigned) [Example 14]: the IC50 worked out at 1.2 nM.

For `N[C@@H]1CN(c2nc3cc(F)ccc3n2Cc2ncc(F)cn2)CC[C@H]1F` (single isomer, unassigned) [Example 11], the IC50 was 0.4 nM.

For the compound `N[C@@H]1CN(c2nc3ccc(F)cc3n2Cc2ccc(F)cn2)CCC1(F)F` (single isomer, unassigned) [Example 7], the IC50 amounted to 22.9 nM.

In the case of `N[C@@H]1CN(c2nc3cc(F)ccc3n2Cc2ccc(Cl)cn2)CCC1(F)F` (single isomer, unassigned) [Example 5], the IC50 amounted to 0.3 nM.

As to `N[C@@H]1CN(c2nc3cc(F)c(F)cc3n2Cc2ncc(Cl)cn2)CCC1(F)F` [Example 17, (3R)-1-(1-((5-chloro-2-pyrimidinyl)methyl)-5,6-difluoro-1H-benzimidazol-2-yl)-4,4-difluoro-3-piperidinamine], the IC50 amounted to 0.6 nM.

As for `Cc1ccc(Cn2c(N3CC[C@@H](F)[C@H](N)C3)nc3cc(F)c(F)cc32)nc1` [Example 8, (3R,4R)-1-(5,6-difluoro-1-((5-methyl-2-pyridinyl)methyl)-1H-benzimidazol-2-yl)-4-fluoro-3-piperidinamine], the IC50 was determined as 0.1 nM.

Take `COc1cnc(Cn2c(N3CC[C@@H](F)[C@H](N)C3)nc3cc(F)c(F)cc32)nc1` [Example 19, (3R,4R)-1-(5,6-difluoro-1-((5-methoxy-2-pyrimidinyl)methyl)-1H-benzimidazol-2-yl)-4-fluoro-3-piperidinamine]: the IC50 is 1.2 nM.

`N[C@@H]1CN(c2nc3ccc(F)cc3n2Cc2ncc(Cl)cn2)CCC1(F)F` (single isomer, unassigned) [Example 6]: the IC50 came to 1 nM.

Turning to `N#Cc1cc(F)cc2c1nc(N1CC[C@@H](F)[C@H](N)C1)n2Cc1ccc(F)cn1` (single isomer, unassigned) [Example 15], the IC50 came to 1 nM.

`COc1cc(F)c2nc(N3CC[C@@H](F)[C@H](N)C3)n(Cc3ncc(Cl)cn3)c2c1` (single isomer, unassigned) [Example 21]: the IC50 was found to be 0.4 nM.

With `N[C@@H]1CN(c2nc3cc(F)c(F)cc3n2Cc2ccc(Cl)cn2)CCC1(F)F` [Example 16, (3R)-1-(1-((5-chloro-2-pyridinyl)methyl)-5,6-difluoro-1H-benzimidazol-2-yl)-4,4-difluoro-3-piperidinamine], the IC50 came out at 0.6 nM.

Regarding `N#Cc1ccc2nc(N3CCC(F)(F)[C@H](N)C3)n(Cc3ccc(Cl)cn3)c2c1` (single isomer, unassigned) [Example 13], the IC50 stood at 1.3 nM.

As to `N[C@@H]1CN(c2nc3ccc(F)cc3n2Cc2ccc(Cl)cn2)CCC1(F)F` (single isomer, unassigned) [Example 10], the IC50 was 2.5 nM.

Take `N[C@@H]1CN(c2nc3ccc(F)cc3n2Cc2ccc(F)cn2)CC[C@H]1F` (single isomer, unassigned) [Example 4]: the IC50 is 0.4 nM.

Turning to `N[C@@H]1CN(c2nc3ccc(F)cc3n2Cc2ncc(F)cn2)CC[C@H]1F` (single isomer, unassigned) [Example 3], the IC50 stood at 0.2 nM.
